Source: US20120245137A1 (Zalicus Pharmaceuticals Ltd., priority 2009, published 2012)

Key:
male CF1 mice = assay: 6 Hz psychomotor seizure model of partial epilepsy; assay type: in vivo; set-up: concentration or dose not given beside the values; conditions: 6 Hz 32 mA corneal stimulus
Text: Compounds can also be evaluated for the protection against seizures induced by a 6 Hz, 0.2 ms rectangular pulse width of 3 s duration, at a stimulus intensity of 32 mA (CC97) applied to the cornea of male CF1 mice (20-30 g) according to procedures described by Barton et al, “Pharmacological Characterization of the 6 Hz Psychomotor Seizure Model of Partial Epilepsy,” Epilepsy Res. 47(3):217-27 (2001). Seizures are characterised by the expression of one or more of the following behaviours: stun, forelimb clonus, twitching of the vibrissae and Straub-tail immediately following electrical stimulation.

[1] = target: N-type calcium channel subunits (α1B, α2δ, and β3a) (Homo sapiens, UniProt Q00975); assay: Block of Cav2.2 channel, whole cell voltage clamp, manual and PatchXpress; assay type: cell-based; conditions: Table 5; table follows Assay Example 3 (whole cell voltage clamp / PatchXpress); assay not given
How it was run: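 Percent block taken as current amplitude ratio with versus without compound, applied in rising doses; IC50 fitted where one cell received multiple doses. Protocol: 50 ms pulses to +20 mV at 0.067 Hz from […] or −90 mV holding; P/n leak subtraction, no junction-potential correction; manual and PatchXpress recordings.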

mice = conditions: mouse, in vivo
Procedure: In mice, the rotarod procedure (Dunham and Miya, J. Am. Pharmacol. Assoc. 46:208-209 (1957)) is used to disclose minimal muscular or neurological impairment (MMI). When a mouse is placed on a rod that rotates at a speed of 6 rpm, the animal can maintain its equilibrium for long periods of time. The animal is considered toxic if it falls off this rotating rod three times during a 1-min period.

[2] = target: human α1G T-type channels (Homo sapiens, UniProt O43497); assay: T-type calcium channel block, whole cell patch clamp, α1G; assay type: cell-based; conditions: HEK cells stably expressing human α1G; mainly non-inactivated protocol; values above 10,000 nM represented as 10000
Chain of human α1G T-type channels (O43497 whole entry): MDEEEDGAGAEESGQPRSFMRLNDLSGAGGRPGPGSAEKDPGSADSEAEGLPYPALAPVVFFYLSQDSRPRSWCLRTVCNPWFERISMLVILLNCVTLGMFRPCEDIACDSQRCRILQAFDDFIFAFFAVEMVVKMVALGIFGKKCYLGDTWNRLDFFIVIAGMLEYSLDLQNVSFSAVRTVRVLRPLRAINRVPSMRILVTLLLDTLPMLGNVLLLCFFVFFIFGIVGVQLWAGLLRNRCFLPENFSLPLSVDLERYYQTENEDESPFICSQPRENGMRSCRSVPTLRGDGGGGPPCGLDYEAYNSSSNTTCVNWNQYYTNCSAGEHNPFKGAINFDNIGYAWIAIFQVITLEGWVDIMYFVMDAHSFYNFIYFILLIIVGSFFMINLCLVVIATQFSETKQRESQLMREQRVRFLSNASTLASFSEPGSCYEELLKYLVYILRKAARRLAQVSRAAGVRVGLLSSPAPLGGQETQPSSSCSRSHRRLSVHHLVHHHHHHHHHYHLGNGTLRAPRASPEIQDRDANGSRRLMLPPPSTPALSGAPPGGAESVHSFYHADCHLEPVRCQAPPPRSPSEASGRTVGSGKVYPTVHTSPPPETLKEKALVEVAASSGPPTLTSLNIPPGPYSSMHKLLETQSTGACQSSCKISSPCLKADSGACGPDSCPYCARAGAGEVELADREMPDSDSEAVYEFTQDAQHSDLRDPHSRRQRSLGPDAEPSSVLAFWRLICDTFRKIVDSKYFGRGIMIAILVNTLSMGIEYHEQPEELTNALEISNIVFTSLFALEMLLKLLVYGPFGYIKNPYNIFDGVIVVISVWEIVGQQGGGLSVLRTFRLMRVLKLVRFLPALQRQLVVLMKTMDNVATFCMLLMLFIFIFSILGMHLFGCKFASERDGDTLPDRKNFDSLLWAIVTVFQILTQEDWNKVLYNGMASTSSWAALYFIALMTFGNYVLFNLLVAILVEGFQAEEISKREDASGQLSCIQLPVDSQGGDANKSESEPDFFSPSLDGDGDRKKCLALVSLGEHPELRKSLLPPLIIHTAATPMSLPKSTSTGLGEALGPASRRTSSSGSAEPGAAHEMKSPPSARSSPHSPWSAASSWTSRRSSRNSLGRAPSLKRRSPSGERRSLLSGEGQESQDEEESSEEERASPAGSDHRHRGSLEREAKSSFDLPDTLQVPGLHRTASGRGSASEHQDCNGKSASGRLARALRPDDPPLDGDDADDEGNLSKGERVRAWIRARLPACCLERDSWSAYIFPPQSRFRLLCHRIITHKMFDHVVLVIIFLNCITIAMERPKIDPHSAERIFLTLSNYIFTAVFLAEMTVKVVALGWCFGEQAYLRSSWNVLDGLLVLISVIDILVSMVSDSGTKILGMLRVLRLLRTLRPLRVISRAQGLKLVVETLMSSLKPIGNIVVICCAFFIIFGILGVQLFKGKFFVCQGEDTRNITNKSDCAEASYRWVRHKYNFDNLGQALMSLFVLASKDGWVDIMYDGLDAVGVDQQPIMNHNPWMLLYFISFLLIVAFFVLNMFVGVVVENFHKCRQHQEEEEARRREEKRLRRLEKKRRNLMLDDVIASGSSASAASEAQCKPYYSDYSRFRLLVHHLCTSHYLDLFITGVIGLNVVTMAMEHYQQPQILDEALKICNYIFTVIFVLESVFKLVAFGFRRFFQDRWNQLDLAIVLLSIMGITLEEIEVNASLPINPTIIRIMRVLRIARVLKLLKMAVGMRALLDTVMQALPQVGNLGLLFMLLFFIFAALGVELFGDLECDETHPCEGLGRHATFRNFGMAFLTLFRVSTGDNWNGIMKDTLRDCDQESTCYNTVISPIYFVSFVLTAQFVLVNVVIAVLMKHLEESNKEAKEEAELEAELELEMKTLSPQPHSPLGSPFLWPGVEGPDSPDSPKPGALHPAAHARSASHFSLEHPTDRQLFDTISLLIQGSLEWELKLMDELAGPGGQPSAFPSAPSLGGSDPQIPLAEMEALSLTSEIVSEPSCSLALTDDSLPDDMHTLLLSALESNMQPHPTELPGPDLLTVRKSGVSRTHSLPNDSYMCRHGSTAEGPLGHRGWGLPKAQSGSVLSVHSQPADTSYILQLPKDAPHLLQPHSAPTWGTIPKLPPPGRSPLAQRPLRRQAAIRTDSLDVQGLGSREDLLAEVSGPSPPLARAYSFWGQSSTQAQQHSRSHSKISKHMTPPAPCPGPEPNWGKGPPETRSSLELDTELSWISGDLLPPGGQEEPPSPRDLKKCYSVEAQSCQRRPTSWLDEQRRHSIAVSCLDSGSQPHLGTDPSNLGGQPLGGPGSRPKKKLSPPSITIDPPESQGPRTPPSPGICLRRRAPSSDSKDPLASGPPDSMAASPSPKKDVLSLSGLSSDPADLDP
How it was run: (§1)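 Blockade of T-type current was measured in human α1G- or α1H-expressing HEK 293 cells using whole-cell recording with ~5 MΩ pipettes. Test compounds, dissolved in external solution containing 0.1-0.01% DMSO, were applied close to the cell, and block was examined under both non-inactivating and inactivating voltage protocols.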

[3] = target: human α1H T-type channels (Homo sapiens, UniProt O95180); assay: T-type calcium channel block, whole cell patch clamp, α1H; assay type: cell-based; conditions: HEK cells stably expressing human α1H; mainly non-inactivated protocol; values above 10,000 nM represented as 10000
Chain of human α1H T-type channels (O95180 whole entry): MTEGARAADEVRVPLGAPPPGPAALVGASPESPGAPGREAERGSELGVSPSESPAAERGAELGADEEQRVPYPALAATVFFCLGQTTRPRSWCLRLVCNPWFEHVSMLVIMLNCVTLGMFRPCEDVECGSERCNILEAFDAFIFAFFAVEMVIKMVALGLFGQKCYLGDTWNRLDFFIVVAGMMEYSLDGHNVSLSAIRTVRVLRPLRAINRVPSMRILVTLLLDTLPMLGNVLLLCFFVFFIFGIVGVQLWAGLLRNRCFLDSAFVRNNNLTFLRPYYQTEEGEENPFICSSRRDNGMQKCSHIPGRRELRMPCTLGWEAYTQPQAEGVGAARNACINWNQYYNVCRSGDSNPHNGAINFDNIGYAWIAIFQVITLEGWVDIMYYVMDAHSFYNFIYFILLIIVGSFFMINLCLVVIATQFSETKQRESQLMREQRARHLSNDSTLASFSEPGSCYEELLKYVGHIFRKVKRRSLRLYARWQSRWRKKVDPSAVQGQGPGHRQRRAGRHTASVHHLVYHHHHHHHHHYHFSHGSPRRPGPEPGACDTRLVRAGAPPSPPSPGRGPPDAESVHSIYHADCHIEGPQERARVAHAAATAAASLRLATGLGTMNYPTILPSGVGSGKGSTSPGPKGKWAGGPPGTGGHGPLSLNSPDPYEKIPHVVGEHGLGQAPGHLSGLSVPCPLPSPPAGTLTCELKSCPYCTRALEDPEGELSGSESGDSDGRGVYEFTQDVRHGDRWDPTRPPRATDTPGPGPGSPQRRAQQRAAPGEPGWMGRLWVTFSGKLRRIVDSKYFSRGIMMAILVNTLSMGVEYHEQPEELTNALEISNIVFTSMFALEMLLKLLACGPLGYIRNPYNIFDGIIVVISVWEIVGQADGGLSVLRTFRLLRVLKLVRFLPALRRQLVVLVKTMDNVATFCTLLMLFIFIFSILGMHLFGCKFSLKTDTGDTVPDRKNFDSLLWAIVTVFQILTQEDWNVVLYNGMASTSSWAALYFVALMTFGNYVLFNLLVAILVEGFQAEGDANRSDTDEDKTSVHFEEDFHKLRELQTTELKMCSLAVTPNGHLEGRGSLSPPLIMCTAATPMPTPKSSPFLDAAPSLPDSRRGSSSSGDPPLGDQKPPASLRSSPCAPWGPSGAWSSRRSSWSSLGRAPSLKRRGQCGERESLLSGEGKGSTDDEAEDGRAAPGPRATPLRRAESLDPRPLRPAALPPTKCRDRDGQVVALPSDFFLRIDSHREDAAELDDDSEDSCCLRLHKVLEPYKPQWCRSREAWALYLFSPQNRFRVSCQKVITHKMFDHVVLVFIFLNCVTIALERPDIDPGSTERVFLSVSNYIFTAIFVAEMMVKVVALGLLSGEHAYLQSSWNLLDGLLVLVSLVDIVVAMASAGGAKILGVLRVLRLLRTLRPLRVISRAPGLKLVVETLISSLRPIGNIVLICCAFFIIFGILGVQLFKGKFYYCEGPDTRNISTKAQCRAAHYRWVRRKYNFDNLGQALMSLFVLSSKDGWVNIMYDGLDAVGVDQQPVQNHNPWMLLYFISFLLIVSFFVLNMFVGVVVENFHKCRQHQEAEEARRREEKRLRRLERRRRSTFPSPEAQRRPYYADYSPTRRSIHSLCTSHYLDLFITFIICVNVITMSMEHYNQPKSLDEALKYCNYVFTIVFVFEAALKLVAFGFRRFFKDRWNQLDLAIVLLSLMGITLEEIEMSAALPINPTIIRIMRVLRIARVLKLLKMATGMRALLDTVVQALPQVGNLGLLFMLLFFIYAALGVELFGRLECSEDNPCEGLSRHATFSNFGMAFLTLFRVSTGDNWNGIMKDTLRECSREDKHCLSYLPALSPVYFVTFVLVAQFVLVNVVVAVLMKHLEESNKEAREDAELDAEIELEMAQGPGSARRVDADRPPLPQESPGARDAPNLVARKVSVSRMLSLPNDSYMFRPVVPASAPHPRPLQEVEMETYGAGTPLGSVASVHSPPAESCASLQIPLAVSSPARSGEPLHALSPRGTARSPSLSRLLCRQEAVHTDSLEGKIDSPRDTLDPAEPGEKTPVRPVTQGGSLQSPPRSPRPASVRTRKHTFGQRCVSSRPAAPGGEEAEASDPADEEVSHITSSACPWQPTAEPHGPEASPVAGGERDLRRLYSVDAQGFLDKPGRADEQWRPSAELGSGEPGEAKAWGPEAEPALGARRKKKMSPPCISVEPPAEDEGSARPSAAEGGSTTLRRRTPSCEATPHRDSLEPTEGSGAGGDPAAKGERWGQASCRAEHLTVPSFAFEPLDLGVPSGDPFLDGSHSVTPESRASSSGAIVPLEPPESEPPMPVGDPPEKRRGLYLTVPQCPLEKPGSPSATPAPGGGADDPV
How it was run: as §1

T-type calcium channel = assay: T-type channel blocking activity as summarised in text (subunit not stated); assay type: cell-based, human; conditions: Table 4
Procedure: T-type calcium channel blocking activity was assayed in human embryonic kidneycells, HEK 293 (Invitrogen), stably transfected with the T-type calcium channel subunits. Briefly, cells were cultured in Dulbecco's modified eagle medium (DMEM) supplemented with 10% fetal bovine serum, 200 U/ml penicillin, and 0.2 mg/mL streptomycin at 37° C. with 5% CO2. At 85% confluency, cells were split with 0.25% trypsin/1 mM EDTA and plated at 10% confluency on glass coverslips. At 12 hours, the medium was replaced, and the cells stably transfected using a standard calcium phosphate protocol and the appropriate calcium channel cDNA's. Fresh DMEM was supplied, and the cells transferred to 28° C./5% CO2. Cells were incubated for 1 to 2 days prior to whole cell recording.
Standard patch-clamp techniques were employed to identify blockers of T-type currents. Briefly, previously described HEK cell lines stably expressing human α1G, α1H, and α1I T-type channels were used for all the recordings (passage #: 4-20, 37° C., 5% CO2). Whole cell patch clamp experiments were performed using an Axopatch 200B amplifier (Axon Instruments, Burlingame, Calif.) linked to a personal computer equipped with pCLAMP software. Data were analyzed using Clampfit (Axon Instruments) and SigmaPlot 4.0 (Jandel Scientific). […]

| IC50 [2] | IC50 [3] | activity (IC50), T-type channel block (T-type calcium channel) | Compound | Epilepsy 6 Hz (% protected) 0.25 hr (male CF1 mice) | Epilepsy 6 Hz (% protected) 0.5 hr (male CF1 mice) | Epilepsy 6 Hz (% protected) 1 hr (male CF1 mice) | Epilepsy 6 Hz (% protected) 2 hr (male CF1 mice) | Epilepsy 6 Hz (% protected) 4 hr (male CF1 mice) | IC50 [1] | EPILEPSY ROTAROD (% IMPAIRED) 0.25 hr (mice) | EPILEPSY ROTAROD (% IMPAIRED) 0.5 hr (mice) | EPILEPSY ROTAROD (% IMPAIRED) 1 hr (mice) | EPILEPSY ROTAROD (% IMPAIRED) 2 hr (mice) | EPILEPSY ROTAROD (% IMPAIRED) 4 hr (mice) |
| --- | --- | --- | --- | --- | --- | --- | --- | --- | --- | --- | --- | --- | --- | --- |
| – | – | – | CC(C)(C1CC(NC(=O)c2cn3cc(C(F)(F)F)ccc3n2)C1)S(=O)(=O)c1cccc(C(F)(F)F)c1 [Compound 438, 6-(trifluoromethyl)-N-((1R,3R)-3-(2-(3-(trifluoromethyl)phenylsulfonyl)propan-2-yl)cyclobutyl)imidazo[1,2-a]pyridine-2-carboxamide] | 75% | 0% | 0% | 25% | 0% | 400 nM | 0% | 0% | 0% | 0% | 0% |
| – | – | – | O=C(NCC1CC(S(=O)(=O)c2cc(F)cc(C(F)(F)F)c2)C1)c1cc(F)cc(Cl)c1 [Compound 396, 3-chloro-5-fluoro-N-(((1R,3R)-3-(3-fluoro-5-(trifluoromethyl)phenylsulfonyl)cyclobutyl)methyl)benzamide] | 50% | 0% | 0% | 25% | 0% | 940 nM | 0% | 0% | 0% | 0% | 0% |
| – | – | – | O=S(=O)(c1cccc(C(F)(F)F)c1)C1CC(c2c[nH]c(C(F)(F)F)n2)C1 [Compound 442, 2-(trifluoromethyl)-4-((1R,3R)-3-(3-(trifluoromethyl)phenylsulfonyl)cyclobutyl)-1H-imidazole] | 50% | 25% | 75% | 0% | 0% | 2840 nM | 0% | 0% | 0% | 0% | 0% |
| 9.51 µM | 3.17 µM | – | CS(=O)(=O)c1cc(C(F)(F)F)ccc1C(=O)NCC1CC(S(=O)(=O)c2cccc(C(F)(F)F)c2)C1 [Compound 356, 2-(methylsulfonyl)-4-(trifluoromethyl)-N-(((1R,3R)-3-(3-(trifluoromethyl)phenylsulfonyl)cyclobutyl)methyl)benzamide] | 25% | 0% | 0% | 0% | 0% | 570 nM | 0% | 0% | 0% | 0% | 0% |
| 9.13 µM | 8.09 µM | lowest IC50 | COc1cc(F)cc(C(=O)N[C@H]2CC[C@H](S(=O)(=O)c3cccc(C(F)(F)F)c3)CC2)c1 [Compound 59, 3-fluoro-5-methoxy-N-((1R,4R)-4-(3-(trifluoromethyl)phenylsulfonyl)cyclohexyl)benzamide] | – | – | – | – | – | 440 nM | – | – | – | – | – |

| Compound | IC50 [2] | IC50 [3] | activity (IC50), T-type channel block (T-type calcium channel) | Epilepsy 6 Hz (% protected) 0.25 hr (male CF1 mice) | Epilepsy 6 Hz (% protected) 0.5 hr (male CF1 mice) | Epilepsy 6 Hz (% protected) 1 hr (male CF1 mice) | Epilepsy 6 Hz (% protected) 2 hr (male CF1 mice) | Epilepsy 6 Hz (% protected) 4 hr (male CF1 mice) | IC50 [1] | EPILEPSY ROTAROD (% IMPAIRED) 0.25 hr (mice) | EPILEPSY ROTAROD (% IMPAIRED) 0.5 hr (mice) | EPILEPSY ROTAROD (% IMPAIRED) 1 hr (mice) | EPILEPSY ROTAROD (% IMPAIRED) 2 hr (mice) | EPILEPSY ROTAROD (% IMPAIRED) 4 hr (mice) |
| --- | --- | --- | --- | --- | --- | --- | --- | --- | --- | --- | --- | --- | --- | --- |
| O=C(NCC1(O)CCC(S(=O)(=O)c2cccc(C(F)(F)F)c2)CC1)c1ccc(F)c(Cl)c1 [Compound 230, 3-chloro-4-fluoro-N-(((1S,4S)-1-hydroxy-4-(3-(trifluoromethyl)phenylsulfonyl)cyclohexyl)methyl)benzamide] | 1.18 µM | – | – | 0% | 25% | 25% | 100% | 0% | 790 nM | 0% | 0% | 0% | 0% | 0% |
